# Read-outs that look alike come from different tables or passages of the source.
# What was measured:
# rat heart = assay: Coronary blood flow (PCS2A): isolated perfused heart; conditions: for EC50: isolated perfused rat heart
# Method: CORONARY BLOOD FLOW (PCS2A)
# Male rats (400-600 gms) are pretreated with Na haparin 2000 units and anesthetized with Na pentobarbital (50 mg/kg) administered intraperitoneally. Once anesthetized, the rat heart is rapidly excised, the ascending aorta fitted to the aortic perfusion cannula, and […] with a ligature. The coronary arteries are perfused initially at a rate of about 15 ml/min for two to three minutes, afterwhich they are perfused at constant pressure of 70 mm Hg and temperature of 37°C. The electrocardiogram (ECG) is recorded using two platinum electrodes positioned at the base and apex of the left ventricle. A second heart is excised, cannulated, and perfused by the same method outlined above. Both hearts are tested in parallel. The standard physiological salt solution (PSS) is a modified Krebs-Hanseleit bicarbonate buffer of the following composition in mM concentration: NaCI, 127; NaHC03, 25; dextrose, 5.5; Na Pyruvate, 2.0: KCI, 4.7; MgS04, 1.1; KH 2P04, 1.2; CaCl2·2H2O, 2.5; CaNa2 EDTA, 0.05.
# A 30-minute stabilization period is observed before starting the test protocol.
# The microprocessor control system is a servo mechanism which permits coronary perfusion pressure (CPP) and drug concentration to be maintained constant independent of changes in coronary flow. The level at which CPP and drug concentration are maintained can be changed by commands communicated through the microprocessor keyboard. Dose-response curves are carried out by perfusing concentrated drug solution (DC) at rates proportional to total coronary flow (CFT). Drug concentrations are increased by proportionate increases in the rate of DC infusion over CFT via the microprocessor keyboard. The proportional flow rates for DC:CFT is about .0002:1 at the low end and .02: at the high end of the dose-response curve. Dose-response curves encompassing at least two log doses are carried out by preparing two DCs with a concentration difference of 1:100. Following the first dose range of two log doses, the DC are switched, proportional pumping rate adjusted, and the dose-response curve continued for another two log doses. The standard dose-response curve is carried out in one-half log dose increments starting at a subthreshold dose and ending at a dose which produces near maximal response in activity. Standard reference compounds are tested over the range of 10-^9 to 10-^6M.
# Measurements are for heart rate (HR) and coronary flow (CF). Units are: HR, beats/minute (bpm) and CF, milliliters/minute (ml/min). HR is calculated from the ECG strip chart recording and CF is calculated by recording analog outputs from pumps 1 and 2. Outputs from pump #1 = CFT and the output from pump #2 = CF for heart B (CFg). CF for heart A (CFA) is calculated (CFT - CFB = CFA).
# Using the above technique, the effects of the compound of Examples 1 and 2 are as follows: […]
# Swiss-Webster male mice [1] = assay: Mouse Activity and Screen Test (MAST): screen test (ST); assay type: in vivo; conditions: for MAST ST LAD: lowest dose at which an A rating (60-100%) is achieved, screen test, intraperitoneally; for Inhibition of screen test failure: percent of mice falling off the screen
# Method: (§1) Treatments are administered intraperitoneally one hour prior to testing. […] Compounds are dissolved or suspended in 0.2% Methocel. Control animals are injected with Methocel.
# The compounds are identified in the Examples.
# conscious rat = assay: Antihypertensive evaluation (AHP3): aortic blood pressure and heart rate; assay type: in vivo; conditions: lowest dose tested at which a >10% reduction in blood pressure for four consecutive hours is achieved; conscious rat; read-out: AHP3 BP LAD
# Source text: […] EVALUATION (AHP3)
# This test procedure is described in the following paragraphs.
# A Method for the Direct Monitoring of Aortic Blood Pressure and Heart Rate from Conscious Rats
# The continuous monitoring of pulsatile blood pressure (BP) from unrestrained conscious rats surgically equipped with polyethylene cannulas was accomplished by means of a computer assisted data capture scheme (CADCS). The absic elements of the methodology are the cannulation procedure and the CADCS.
# Cannulation Procedure: Rats were anesthetized with Telazol (1:1 tiletamine HCI and zolazepam HCI); 20-40 mg/kg IM and the descending aorta exposed via a midline incision. Cannulas fabricated from polyethylene tubing were inserted into the aorta via an undersized puncture hole below the renal arteries. The puncture hole was made by a 23 G disposable needle with a section of the aorta clamped off above and below the puncture site. The cannulas, consisting of a PE100 (0.86 mm ID) body and a PE50 (0.58 mm ID) tip, were attached to a trocar, inserted through the psoas muscle, and passed subcutaneously along the midline of the back and externalized between the ears. The cannulas were anchored to the psoas muscle and between the scalulae (3-0 green braided suture). The midline incision was closed in two steps (muscle first, skin second) using continuous over-and over sutures (4-0 chronic). Each rat was then given penicillin 30,000 units subcutaneously (Penicillin G Procaine Sterile Suspension).
# The rats were fitted with a harness-spring-swivel assembly designed to protect the cannula and to provide the rat relative freedom of movement. The harnesses were fabricated from nylon hook and loop tape cemented to a metal plate to which spring wires (18-8 stainless steel), were attached to brass swivels. Each polyethylene cannula was channeled through a spring and connected through a swivel to a pressure transducer (Model P23Gb; Statham Instruments; Hato Rey, Puerto Rico) and an infusion pump (Sage model 234-7; Orion Research, Cambridge, Ma) by means of PE100 tubing. While on test, each rat received a continuous slow infusion of heparinized saline solution (approximately 400 I or 40 units of heparin per 24 hour period) to prevent clot formation. Additional "flushes" of the cannula with heparinized saline were carried out when the aortic pulse pressure (systolic minus diastolic) was less than 25 mm Hg.
# CADCS: The pulsatile blood pressure and heart rate of each of 32 rats was monitored every minute by means of two in-laboratory microcomputers communicating directly with a data concentrator computer. The data were first stored on the data concentrator disk and then transferred to a magnetic tape for analysis and report generation by the main research computer. The overall scheme involved modulating the primary signal from the pressure transducer, generating the primary data set of the one-minute values for systolic, diastolic, and mean blood pressures and heart rate by the in-lab microcomputer and the storage, analysis, and report generation by the main research computer.
# The transducers were connected to analog signal conditioning modules. The modules providing a regulated excitation voltage for the transducers, amplification as required to interface the microprocessors and an active low pass filter to compensate for the pressure wave form distortion produced by the flexible, fluid filled, narrow cannula.
# The microcomputers (one for each of two groups of 16 rats) were connected to the input components through the module interface units, an analog-to-digital converter for the pressure wave form signal and the digital inputs for the dose and event marker switches. The microcomputer controlled the sequential acquisition of data from the modular interface units through an internal synchronous time-of-day clock/ time base generator. […]
# Swiss-Webster male mice [2] = assay: Mouse Activity and Screen Test (MAST): inhibition of spontaneous locomotion (LI); assay type: in vivo; conditions: for minimal effective dose: Mus musculus, ip, read-out: MAST LI LAD; for Inhibition of mouse locomotor activity: one hour prior to testing, vs vehicle
# Method: as §1
# Immediately following the screen test, the final phase of testing is initiated by placing each group of three mice in one actophotometer (Life Sciences, 22, 1067-1076, 1978). The actophotometer consists of a cylindrical chamber whose center is occupied by another cylinder which contains the illumination for six photocells located on the perimeter of the chamber. Six light-beam interruptions equal one count. Locomotor activity is recorded by computer at ten minute intervals for 60 minutes. […]
# [3] = coronary flow, read-out: PCS2A CF ED50
# [4] = heart rate, read-out: PCS2A HR ED50
structure (smiles),measurement,setting,value
"OC[C@H]1O[C@@H](n2cnc3c(NCC(c4ccccc4)c4ccc(F)cc4)nc(Cl)nc32)[C@H](O)[C@@H]1O (some centres unmarked) [Example 11, N^6-(2-(4-Fluorophenyl)-2-phenylethyl)-2-chloroadenosine]",EC50,rat heart; [3],50 nM
same,EC50,rat heart; [4],> 3000 nM
same,MAST ST LAD,Swiss-Webster male mice [1],>100 mg/kg
same,minimal effective dose,conscious rat,10 mg/kg
same,minimal effective dose,Swiss-Webster male mice [2],30 mg/kg
"Nc1nc(NCC(c2ccc(Cl)cc2)c2ccc(Cl)cc2)c2ncn([C@@H]3O[C@H](CO)[C@@H](O)[C@H]3O)c2n1 [Example 18, N^6-(2,2-Di-(4-chlorophenyl)ethyl)-2-aminoadenosine]",MAST ST LAD,Swiss-Webster male mice [1],>30 mg/kg
same,minimal effective dose,conscious rat,> 10 mg/kg
same,minimal effective dose,Swiss-Webster male mice [2],> 30 mg/kg
"Nc1nc(NCC(c2ccccc2)c2ccc(Cl)cc2)c2ncn([C@@H]3O[C@H](CO)[C@@H](O)[C@H]3O)c2n1 (some centres unmarked) [Example 16, N^6-(2-(4-Chlorophenyl)-2-phenylethyl)-2-aminoadenosine]",MAST ST LAD,Swiss-Webster male mice [1],>100 mg/kg
same,minimal effective dose,conscious rat,> 10 mg/kg
same,minimal effective dose,Swiss-Webster male mice [2],100 mg/kg
"CC1(C)O[C@@H]2[C@H](O1)[C@@H](CO)O[C@H]2n1cnc2c(NCC(c3ccccc3)c3ccccc3)ncnc21 [Example 29, 2',3'-0-Isopropylidene-N6-(2,2-diphenylethyl)adenosine]",MAST ST LAD,Swiss-Webster male mice [1],>100 mg/kg
same,minimal effective dose,conscious rat,10 mg/kg
same,minimal effective dose,Swiss-Webster male mice [2],30 mg/kg
"O=P(O)(O)OC[C@H]1O[C@@H](n2cnc3c(NCC(c4ccccc4)c4ccccc4)ncnc32)[C@H](O)[C@@H]1O [Example 28, N^6-(2,2-Diphenylethyl)adenosine-5'-phosphate]",MAST ST LAD,Swiss-Webster male mice [1],>30 mg/kg
same,minimal effective dose,Swiss-Webster male mice [2],≤ 3 mg/kg
"Nc1nc(NCC(O)(c2ccccc2)c2ccccc2)c2ncn([C@@H]3O[C@H](CO)[C@@H](O)[C@H]3O)c2n1 [Example 23, N^6-(2,2-Diphenyl-2-hydroxyethyl)-2-aminoadenosine]",EC50,rat heart; [3],> 3000 nM
same,EC50,rat heart; [4],~1000 nM
same,MAST ST LAD,Swiss-Webster male mice [1],>100 mg/kg
same,minimal effective dose,conscious rat,> 10 mg/kg
same,minimal effective dose,Swiss-Webster male mice [2],3 mg/kg
"O=C(OC[C@H]1O[C@@H](n2cnc3c(NCC(c4ccccc4)c4ccccc4)ncnc32)[C@H](OC(=O)c2ccccc2)[C@@H]1OC(=O)c1ccccc1)c1ccccc1 [Example 26, 2',3',5'-Tri-0-benzoyl-N^6-(2,2-diphenylethyl)adenosine]",MAST ST LAD,Swiss-Webster male mice [1],>100 mg/kg
same,minimal effective dose,conscious rat,10 mg/kg
same,minimal effective dose,Swiss-Webster male mice [2],10 mg/kg
"CC(=O)OC[C@H]1O[C@@H](n2cnc3c(NCC(c4ccccc4)c4ccccc4)nc(Cl)nc32)[C@H](OC(C)=O)[C@@H]1OC(C)=O [Example 27, 2',3',5'-Tri-O-acetyl-N^6-(2,2-diphenylethyl)-2-chloroadenosine]",MAST ST LAD,Swiss-Webster male mice [1],>100 mg/kg
same,minimal effective dose,Swiss-Webster male mice [2],30 mg/kg
"OC[C@H]1O[C@@H](n2cnc3c(NCCC(c4ccccc4)c4ccccc4)ncnc32)[C@H](O)[C@@H]1O [Example 2, N^6-(3,3-Diphenylpropyl)adenosine]",activation at 1 µM,"rat heart; Dose 1 × 10^-6 Molar, coronary flow change, isolated rat heart, read-out: CF",47%
same,activation at 0.1 µM,"rat heart; Dose 1 × 10^-7 Molar, coronary flow change, isolated rat heart, read-out: CF",42%
same,activation at 0.01 µM,"rat heart; Dose 1 × 10^-8 Molar, coronary flow change, isolated rat heart, read-out: CF",26%
same,activation at 3 µM,"rat heart; Dose 3 × 10^-6 Molar, coronary flow change, isolated rat heart, read-out: CF",48%
same,EC50,rat heart; [3],3000 nM
same,EC50,rat heart; [4],6000 nM
same,Inhibition of screen test failure,Swiss-Webster male mice [1]; 10 mg/kg intraperitoneally,0%
same,Inhibition of screen test failure,Swiss-Webster male mice [1]; 30 mg/kg intraperitoneally,0%
same,Inhibition of screen test failure,Swiss-Webster male mice [1]; 100 mg/kg intraperitoneally,0%
same,MAST ST LAD,Swiss-Webster male mice [1],>100 mg/kg
same,minimal effective dose,conscious rat,> 30 mg/kg
same,Inhibition of mouse locomotor activity,Swiss-Webster male mice [2]; 10 mg/kg intraperitoneally,−9%
same,Inhibition of mouse locomotor activity,Swiss-Webster male mice [2]; 30 mg/kg intraperitoneally,13%
same,Inhibition of mouse locomotor activity,Swiss-Webster male mice [2]; 100 mg/kg intraperitoneally,60%
same,minimal effective dose,Swiss-Webster male mice [2],100 mg/kg
"OC[C@H]1O[C@@H](n2cnc3c(NCC(c4ccc(Cl)cc4)c4ccc(Cl)cc4)ncnc32)[C@H](O)[C@@H]1O [Example 17, N^6-(2,2-Di(4-chlorophenyl)ethyl)adenosine]",EC50,rat heart; [3],> 3000 nM
same,EC50,rat heart; [4],> 3000 nM
same,MAST ST LAD,Swiss-Webster male mice [1],>100 mg/kg
same,minimal effective dose,Swiss-Webster male mice [2],100 mg/kg
"Cc1cccc(C(CNc2ncnc3c2ncn3[C@@H]2O[C@H](CO)[C@@H](O)[C@H]2O)c2ccccc2)c1 (some centres unmarked) [Example 9, N^6-(2-(3-Methylphenyl)-2-phenylethyl)adenosine]",MAST ST LAD,Swiss-Webster male mice [1],100 mg/kg
same,minimal effective dose,Swiss-Webster male mice [2],≤ 10 mg/kg
"OC[C@H]1O[C@@H](n2cnc3c(NCC(c4ccccc4)c4cccc(Cl)c4)ncnc32)[C@H](O)[C@@H]1O (some centres unmarked) [Example 14, N^6-(2-(3-Chlorophenyl)-2-phenylethyl)adenosine]",MAST ST LAD,Swiss-Webster male mice [1],>100 mg/kg
same,minimal effective dose,Swiss-Webster male mice [2],1 mg/kg
"COC(=O)C(CNc1ncnc2c1ncn2[C@@H]1O[C@H](CO)[C@@H](O)[C@H]1O)(c1ccccc1)c1ccccc1 [Example 24, N^s-(2-Carbomethoxy-2,2-diphenylethyl)adenosine]",EC50,rat heart; [3],> 3000 nM
same,EC50,rat heart; [4],3000 nM
same,MAST ST LAD,Swiss-Webster male mice [1],>30 mg/kg
same,minimal effective dose,Swiss-Webster male mice [2],30 mg/kg
"OC[C@H]1O[C@@H](n2cnc3c(NCC(c4ccc(F)cc4)c4ccc(F)cc4)ncnc32)[C@H](O)[C@@H]1O [Example 13, ^N'-(^2,2-Di-(4-fluorophenyl)ethyl)adenosine]",MAST ST LAD,Swiss-Webster male mice [1],>100 mg/kg
same,minimal effective dose,conscious rat,10 mg/kg
same,minimal effective dose,Swiss-Webster male mice [2],3 mg/kg

# Reference: EP0139358B1, “N6-substituted diarylalkyl adenosines, processes for their production and pharmaceutical compositions comprising the same” (priority 1983, dated 1985)
